# Source: patent US20120060243A1, “Herbicide-Resistant AHAS-Mutants and Methods of Use” (priority 2008, published 2012)
# What was measured:
# Assay type in all cases: in vivo, Brassica napus
# [1] = test system: BnCL97 (BN-02) (AHASIII S653N); assay: Field test herbicide injury, Minot; settings: 200 g ai/ha, 15 days after treatment, S653N single mutant BnCL97 (BN-02)
# Description: (§1) B. napus plants from the following spring oilseed rape lines: BN-02 (wild type), BN-T (wild type), BnCL131A1 in a BN-02 background genotype (AHAS III A122T S653N double mutant), BnCL120C7 in a BN-02 background genotype (BnAHASIII A122T), BnCL97 in a BN-02 background genotype (BnAHASIII S653N), PM1/PM2 in a BN-T background (two gene check: AHAS I S653N & AHAS III W574L), PM1 in a BN-T background (one gene check: AHAS I S653N) and PM2 in a BN-T background (one gene check: AHAS III W574L) were field tested at a site near Minot, N. Dak. Lines were planted in 5 m long single row plots and arranged in a two factorial split plot design with 3 repetitions and 4 treatments (0 g ai/ha imazamox, 50 g ai/ha imazamox, 100 g ai/ha imazamox and 200 g ai/ha imazamox). Plants were sprayed at the 2-4 leaf stage with the above mentioned imazamox treatments. The imazamox product (Beyond 120 g/L LC+0.25% (v/v) non-ionic surfactant) was diluted in 20 gallons per acre (or 200 liters/ha) and applied using a tractor mounted boom.
# (§2) Herbicide injury was evaluated 15 days after treatment (DAT) on a per plot basis using a scale from 0 to 100%, where 0 was no injury and 100% was complete plant death.
# [2] = test system: BnCL131A1 (BN-02) (AHAS III A122T, S653N); assay: Field test herbicide injury, Minot; settings: 200 g ai/ha
# Description: as §1, §2
# [3] = test system: BNCL120C7 (BN-02) (AHASIII A122T); assay: Field test herbicide injury, Minot; settings: 200 g ai/ha, 15 days after treatment, A122T single mutant BNCL120C7 (BN-02)
# Description: as §1, §2
# [4] = test system: PM1/PM2 (commercial two gene check: AHAS I S653N & AHAS III W574L); assay: Herbicide injury rating, Table 4; settings: 3-4 leaf stage, 2 weeks post spray, line PM1/PM2
# Procedure: (§3) Herbicide Injury Rating for Brassica napus Plants Treated with Imazamox. Plants for lines BN02 (wild type), two lines of BnCL131A1 (AHAS III A122T S653N double mutant; BnCL131A1.0 and BnCL131A1.18), PM1/PM2 (commercial two gene check: AHAS I S653N & AHAS III W574L) were grown […] Merge. Herbicide injury was evaluated 2 weeks post spray on 12 plants per line. The results are presented as mean injury±one standard error of the mean in Table 4 below. The results cover one planting and spray for all lines and the values for ±two standard error of the mean are also provided.
# BN-02 (wild type) = assay: Herbicide injury rating, Table 4; settings: 3-4 leaf stage, 2 weeks post spray, line BN-02
# Procedure: as §3
# [5] = test system: BnCL131A1.18 (AHAS III A122T S653N double mutant); assay: Herbicide injury rating, Table 4; settings: 3-4 leaf stage, 2 weeks post spray, line BnCL131A1.18
# Procedure: as §3
# [6] = test system: BnCL131A1.0 (AHAS III A122T S653N double mutant); assay: Herbicide injury rating, Table 4; settings: 3-4 leaf stage, 2 weeks post spray, line BnCL131A1.0
# Procedure: as §3
# BN02 (wild-type) = assay: Foliar spray response of whole plants, FIG. 2; settings: 210 g ai/ha + 0.5% v/v Merge, 3-4 leaf stage, three weeks after treatment, line BN02
# Procedure: (§4) In addition, B. napus plants (3-4 leaf stage) containing the double mutant were analyzed for response to treatment with imazamox compared to wild type plants. Lines BN02 (wild-type) and BnCL131A1 (AHAS III A122T:S653N, double mutant) were treated with either 210 g ai/ha imazamox supplemented with 0.5% v/v Merge by foliar spray or left unsprayed as checks. FIG. 2 provides the results for plants BN02 (top row) and BnCL131A1 (bottom row).
# [7] = test system: BnCL131A1 (AHAS III A122T:S653N, double mutant); assay: Foliar spray response of whole plants, FIG. 2; settings: 210 g ai/ha + 0.5% v/v Merge, 3-4 leaf stage, three weeks after treatment, line BnCL131A1
# Procedure: as §4
smiles,measurement,setting,value
COCc1cnc(C2=NC(C)(C(C)C)C(=O)N2)c(C(=O)O)c1 (stereo not shown) [imazamox],amount of tolerance (100% minus crop injury),[1],17%
same,amount of tolerance (100% minus crop injury),"[2]; field, 15 days after treatment, double mutant line BnCL131A1 (BN-02)",62%
same,expected tolerance if additive (A122T plus S653N),[2]; sum of tolerances of the two single mutant lines,37%
same,amount of tolerance (100% minus crop injury),[3],20%
same,"Herbicide injury rating, mean injury ± standard error of the mean",[4]; 35 g ai/ha + 0.5% v/v Merge,0.50 ± 0.19
same,"Herbicide injury rating, mean injury ± standard error of the mean",[4]; 70 g ai/ha + 0.5% v/v Merge,1.83 ± 0.21
same,"Herbicide injury rating, mean injury ± standard error of the mean",[4]; 210 g ai/ha + 0.5% v/v Merge,2.00 ± 0.23
same,"Herbicide injury rating, mean injury ± standard error of the mean",[4]; 420 g ai/ha,3.83 ± 0.21
same,"Herbicide injury rating, mean injury ± standard error of the mean",BN-02 (wild type); 35 g ai/ha + 0.5% v/v Merge,8.92 ± 0.08
same,"Herbicide injury rating, mean injury ± standard error of the mean",BN-02 (wild type); 70 g ai/ha + 0.5% v/v Merge,9.00 ± 0.00
same,"Herbicide injury rating, mean injury ± standard error of the mean",BN-02 (wild type); 210 g ai/ha + 0.5% v/v Merge,9.00 ± 0.00
same,"Herbicide injury rating, mean injury ± standard error of the mean",BN-02 (wild type); 420 g ai/ha,9.00 ± 0.00
same,"Herbicide injury rating, mean injury ± standard error of the mean",[5]; 35 g ai/ha + 0.5% v/v Merge,0.64 ± 0.20
same,"Herbicide injury rating, mean injury ± standard error of the mean",[5]; 70 g ai/ha + 0.5% v/v Merge,0.91 ± 0.21
same,"Herbicide injury rating, mean injury ± standard error of the mean",[5]; 210 g ai/ha + 0.5% v/v Merge,1.89 ± 0.20
same,"Herbicide injury rating, mean injury ± standard error of the mean",[5]; 420 g ai/ha,2.27 ± 0.14
same,"Herbicide injury rating, mean injury ± standard error of the mean",[6]; 35 g ai/ha + 0.5% v/v Merge,0.90 ± 0.28
same,"Herbicide injury rating, mean injury ± standard error of the mean",[6]; 70 g ai/ha + 0.5% v/v Merge,1.20 ± 0.29
same,"Herbicide injury rating, mean injury ± standard error of the mean",[6]; 210 g ai/ha + 0.5% v/v Merge,1.45 ± 0.28
same,"Herbicide injury rating, mean injury ± standard error of the mean",[6]; 420 g ai/ha,3.20 ± 0.20
same,response to treatment with imazamox (tolerance),BN02 (wild-type),nearly non-tolerant
same,response to treatment with imazamox (tolerance),[7],almost completely tolerant
